Data set [1] relates to HepG2 cells expressing CYP2C9. The data set can be described thus: Cytotoxicity (MTS assay) in HepG2 cells expressing CYP2C9. Conditions: for Increased cytotoxicity in HepG2 cells expressing CYP2C9 (yes/no) / % living HepG2 cells expressing CYP2C9 after incubation with the min [c]: MTS assay; for Increased cytotoxicity in HepG2 cells expressing CYP2C9 (yes/no) / min [c]: minimal concentration that increases the cytotoxicity: threshold cell viability 80%; for Increased cytotoxicity in HepG2 cells expressing CYP2C9 (yes/no): compared with wild-type HepG2 cells; for min [c]: minimal concentration that increases the cytotoxicity: HepG2 cells expressing CYP2C9; for % living HepG2 cells expressing CYP2C9 after incubation with the min [c]: at min [c] of the compound. For orientation: Tetrazolium assays rely on reduction of a dye to a coloured formazan, in cell work by metabolically active cells.
Method: (§13) For the assessment of cell viability, “wild type” (wt) HepG2 cells (without CYP2C9) and HepG2 cells expressing the CYP2C9 enzyme were incubated with serial dilutions of selected molecules (at concentrations from 10 nM to 100 μM). Briefly, HepG2 cells were incubated in 96-well plates (2.5x 10^4 cells/mL), and the number of living cells was determined by the MTS assay according to the protocol recommended by the manufacturer (Promega, France).

Data set [2] concerns the target T1, CYP2C9 supersomes (Homo sapiens, UniProt P11712). The data set can be described thus: Inhibition of CYP2C9 on recombinant supersomes (diclofenac 4-hydroxylation, LC/MS-MS). As to conditions: for pIC50: IC50 values determined with CYP2C9 supersomes, substrate diclofenac 5 μM, recombinant supersomes. On the procedure: (§1) A CYP2C9-specific substrate (diclofenac) and recombinant supersomes were incubated with and without the study compounds (according to the protocol optimized by the Service Provider Admescope (Finland)). The concentrations of the studied compounds were 0.3, 1, 3, 10, 20, 30, 50, 60, 70, 90 and 100 μM. […] The enzymatic reactions were started after 6 min of preincubation by adding NADPH and terminated after 15 min by adding ice-cold acetonitrile. The supernatant was collected and centrifuged for analyses. The samples were analyzed by LC/MS-MS to determine the level of metabolites in the absence and presence of a candidate molecule. Spiked standard samples were not used, but quantification based on relative peak areas was performed (solvent control = 100%). The disappearance was evaluated as relative LC/MS peak areas, and the 0-min time points were marked as 100%. The disappearance rate was used to calculate the half-life and in vitro clearance. For details of the method, see S2 Text.
(§2) Details of analytical method for inhibition tests using CYP2C9 supersomes and calculation of IC50
(§3) Test compound concentrations: Test compound Test concentrations (µM)
(§4) Diclofenac at 5 µM for CYP2C9
(§5) Substrates and concentrations:
(§6) Instrumentation: Waters Acquity UPLC + Thermo TSQ Endura triple quadrupole MS
(§7) The IC50 value for the test compound was determined by fitting following equation to the data
(§8) A% = percentual activity remaining
(§9) Top = the upper plateau of percentual activity (constrained to 100)
(§10) Bottom = the lower plateau of percentual activity (constrained to 0)
(§11) [I] = inhibitor concentration
(§12) (1 picture or pasted object on this page, not shown here)

Data set [3] has as its target T2, CYP2C9 (Homo sapiens, UniProt P11712). The experiment in a line: Inhibition of CYP2C9 activity in HepG2 cells expressing CYP2C9 (P450-Glo CYP2C9 assay with Luciferin-H). As to conditions: for Inhibition of CYP2C9 activity in HepG2 cells (yes/no) / Dose-dependent inhibition (yes/no): HepG2 cells expressing CYP2C9; for Inhibition of CYP2C9 activity in HepG2 cells (yes/no): concentration range with cell viability > 80%; for Dose-dependent inhibition (yes/no): five-step dilution series 0.5 to 50 μM; for Any effect (inhibition of CYP2C9 activity and/or cytotoxicity on HepG2 cells expressing CYP2C9): over the range of concentrations used.
Method: (§14) The P450-Glo CYP2C9 Assays with Luciferin-H kit (Promega, France) was used to measure cytochrome P450 2C9 activity. Luciferin H is proluciferin, a derivative of beetle luciferin. This derivative is converted by the CYP2C9 enzyme to luciferin products. D-luciferin is formed and detected via a second reaction with the Luciferin Detection Reagent. The amount of light produced in the second reaction is directly proportional to CYP activity. Luciferase-free water was added in the wells reserved for background luminescence. After 4 h of incubation, the enzyme reaction was stopped by the addition of 50 μl of Luciferin Detection Reagent, which also contains the esterase needed for generation of the luminescence signal. In each plate, a standard range of beetle luciferin (from 8 nM to 224 nM) was included. The plate was finally incubated at room temperature in the dark for 30 min to stabilize the luminescence signal, which was measured using an EnSpire plate reader (Perkin Elmer).
(§15) Concentration-dependent CYP2C9 inhibition assays were performed by preparing a five-step dilution series from 0.5 (min) to 50 μM (max) of selected compounds according to the viability tests and by transferring 12.5 μl of each dilution into the assay plate. CYP2C9 activity was determined (as described above) and compared to that of untreated controls incubated with DMSO buffer alone. Each compound dilution was tested in triplicate in the inhibition assays, and the experiments were independently repeated on three different days. The data were analyzed with GraphPad Prism Version 5.03 software.
(§16) The raw data obtained from the EnSpire plate reader were processed by calculating the total luminescence (% of untreated control) using the following formula: raw data − (background luminescence) * 100/mean of untreated control. All the values were normalized to the amount of proteins extracted from fresh cells with Pierce RIPA buffer (Thermo Scientific, France). CYP2C9 enzyme activity is expressed in pmol D-luciferin.mg^-1 of protein.min^-1.

Data set [4] addresses T1, CYP2C9 supersomes. The data set can be described thus: Metabolism assays with recombinant CYP2C9 supersomes (UPLC/HR-MS). As to conditions: incubation with recombinant CYP2C9 supersomes.
Method: Briefly, the studied compounds were incubated with recombinant CYP2C9 supersomes. […] The time points used in the analysis were 0, 10, 20, 40, and 60 min, and the collected samples were analyzed by UPLC/HR-MS to monitor substrate depletion. The collected samples were stored at -20°C until thawed, centrifuged and analyzed for substrate depletion by UPLC/HR-MS, and the analytical method was optimized using the parent compounds for fit-for-purpose chromatographic properties (peak shape and retention) and mass spectrometric ionization.
Data set [5] deals with T2, CYP2C9. The experiment in a line: Inhibition of CYP2C9 on recombinant supersomes (diclofenac 4-hydroxylation, LC/MS-MS). Conditions: human, recombinant CYP2C9 supersomes, probe diclofenac 5 μM (4-hydroxylation), IC50 values determined with CYP2C9 supersomes, substrate diclofenac 5 μM; recombinant supersomes. On the procedure:
as §1, §2, §3, §4, §5, §6, §7, §8, §9, §10, §11, §12

Data set [6] addresses T2, CYP2C9.
Method: as §14, §15, §16
Data set [7] relates to HepG2 cells expressing CYP2C9. Conditions: human.
Method: as §13

pIC50: −log10 of the molar value. “Also recorded” adds a separate entry of the source. Read-outs that look alike come from different tables or passages of the source. Some results are limits rather than exact numbers.

T2 sequence (P11712 whole entry): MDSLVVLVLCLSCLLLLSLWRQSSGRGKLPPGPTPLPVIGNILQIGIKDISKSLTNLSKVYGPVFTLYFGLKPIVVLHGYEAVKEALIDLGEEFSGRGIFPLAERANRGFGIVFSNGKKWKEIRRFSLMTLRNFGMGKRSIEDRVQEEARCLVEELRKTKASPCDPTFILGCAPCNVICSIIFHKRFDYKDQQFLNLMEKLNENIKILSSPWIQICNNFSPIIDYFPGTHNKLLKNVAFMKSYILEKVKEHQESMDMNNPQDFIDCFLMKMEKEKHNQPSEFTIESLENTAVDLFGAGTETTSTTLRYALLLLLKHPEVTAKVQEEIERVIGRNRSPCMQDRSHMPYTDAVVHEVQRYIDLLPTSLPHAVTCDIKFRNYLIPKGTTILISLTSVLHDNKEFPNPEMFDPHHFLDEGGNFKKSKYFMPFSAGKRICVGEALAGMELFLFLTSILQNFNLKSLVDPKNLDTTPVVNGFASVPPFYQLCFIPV
T1 sequence (P11712 whole entry): as above

Regarding `CCCSc1nc(N[C@@H]2C[C@H]2c2ccc(F)c(F)c2)c2nnn([C@@H]3C[C@H](OCCO)[C@@H](O)[C@H]3O)c2n1` [Ticagrelor], the “Increased cytotoxicity in HepG2 cells expressing CYP2C9 (yes/no)” value (“Increased cytotoxicity … (yes/no)” below) in data set [1] is recorded as “no”. Moreover, in data set [2], the negative-log IC50 (pIC50) is 4.93. Besides, in data set [3], the “Inhibition of CYP2C9 activity in HepG2 cells (yes/no)” value (shortened to “Inhibition … in HepG2 cells (yes/no)”) is recorded as “yes” and the “Dose-dependent inhibition (yes/no)” value is “yes”.
Take `O=c1[nH]c2ccccc2c(=O)n1CCCN1CCN(c2cccc(Cl)c2)CC1` [Cloperidone]: in data set [1], the “Cytotoxicity after incubation with HepG2 cells expressing CYP2C9 (in words)” value is listed as “increased cytotoxicity”, the “min [c]: minimal concentration that increases the cytotoxicity” value came to 100 µM, the “Increased cytotoxicity … (yes/no)” value is on record as “yes” and the “% living HepG2 cells expressing CYP2C9 after incubation with the min [c]” value (“% living HepG2 cells expressing CYP2C9” below) is given as 40%. In addition, the “Inhibition effect on CYP2C9 (in words)” value in data set [2] (CYP2C9 supersomes) is “strongly inhibit”. Moreover, the pIC50 in data set [2] is 4.75. In data set [3], the “Inhibition … in HepG2 cells (yes/no)” value is “yes” and the “Dose-dependent inhibition (yes/no)” value was “yes”. Moreover, the “Metabolism by CYP2C9 (in words)” value in data set [4] is listed as “metabolized by CYP2C9”.
On to `Cc1nc(Nc2ncc(C(=O)Nc3c(C)cccc3Cl)s2)cc(N2CCN(CCO)CC2)n1` [Dasatinib], for which, in data set [1], the “min [c]: minimal concentration that increases the cytotoxicity” value is 20 µM, the “Increased cytotoxicity … (yes/no)” value is “yes” and the “% living HepG2 cells expressing CYP2C9” value was 45%. In addition, in data set [3], the “Inhibition … in HepG2 cells (yes/no)” value was “yes” and the “Dose-dependent inhibition (yes/no)” value is on record as “yes”.
With `O=C1NCCN1CCN1CCC(c2cn(-c3ccc(F)cc3)c3ccc(Cl)cc23)CC1` [Sertindole], in data set [1], the “min [c]: minimal concentration that increases the cytotoxicity” value came out at 10 µM, the “Increased cytotoxicity … (yes/no)” value is recorded as “yes” and the “% living HepG2 cells expressing CYP2C9” value came out at 60%. In data set [2], the pIC50 was 4.40. Also, in data set [3], the “Inhibition … in HepG2 cells (yes/no)” value was “yes” and the “Dose-dependent inhibition (yes/no)” value is given as “yes”.
As to Bifeprofen, in data set [1], the “min [c]: minimal concentration that increases the cytotoxicity” value is 75 µM, the “Increased cytotoxicity … (yes/no)” value is given as “yes” and the “% living HepG2 cells expressing CYP2C9” value is recorded as 50%. Also, in data set [3], the “Inhibition … in HepG2 cells (yes/no)” value was “yes” and the “Dose-dependent inhibition (yes/no)” value is “yes”.
As to `Cc1ccccc1-n1c(/C=C/c2ccccn2)nc2ccccc2c1=O` [Piriqualone], in data set [1], the “min [c]: minimal concentration that increases the cytotoxicity” value stood at 75 µM, the “Increased cytotoxicity … (yes/no)” value is “yes” and the “% living HepG2 cells expressing CYP2C9” value is recorded as 0%. The pIC50 in data set [2] was 4.96. In data set [3], the “Inhibition … in HepG2 cells (yes/no)” value is recorded as “yes” and the “Dose-dependent inhibition (yes/no)” value is listed as “yes”.
For `Clc1ccc(Nc2nnc(Cc3ccncc3)c3ccccc23)cc1` [Vatalanib], in data set [1], the “min [c]: minimal concentration that increases the cytotoxicity” value was determined as 20 µM, the “Increased cytotoxicity … (yes/no)” value is “yes” and the “% living HepG2 cells expressing CYP2C9” value is listed as 50%. The half-maximal inhibitory concentration (IC50) at 15 min in data set [5] was below 0.3 µM. Further, the “Inhibition effect on CYP2C9 (in words)” value in data set [2] (CYP2C9 supersomes) was “strongly inhibit”. Moreover, the pIC50 in data set [2] was above 4.74. For the same molecule, in data set [3], the “Inhibition … in HepG2 cells (yes/no)” value is listed as “yes” and the “Dose-dependent inhibition (yes/no)” value is on record as “yes”. Besides, in data set [4], the “Metabolism by CYP2C9 (in words)” value is “metabolized by CYP2C9”.
Turning to `CN(c1nccc(=O)[nH]1)C1CCN(c2nc3ccccc3n2Cc2ccc(F)cc2)CC1` [Mizolastine], in data set [1], the “min [c]: minimal concentration that increases the cytotoxicity” value turned out to be 50 µM, the “Increased cytotoxicity … (yes/no)” value is “yes” and the “% living HepG2 cells expressing CYP2C9” value worked out at 60%. Moreover, in data set [3], the “Inhibition … in HepG2 cells (yes/no)” value is recorded as “no” and the “Dose-dependent inhibition (yes/no)” value was “no”.
For the molecule Ciltoprazine, in data set [1], the “min [c]: minimal concentration that increases the cytotoxicity” value amounted to 75 µM, the “Increased cytotoxicity … (yes/no)” value is “yes” and the “% living HepG2 cells expressing CYP2C9” value is given as 0%. Further, in data set [3], the “Inhibition … in HepG2 cells (yes/no)” value is “yes” and the “Dose-dependent inhibition (yes/no)” value was “no”.
On to `CCN1CCN(Cc2ccc(Nc3ncc(F)c(-c4cc(F)c5nc(C)n(C(C)C)c5c4)n3)nc2)CC1` [Abemaciclib], for which, in data set [1], the “min [c]: minimal concentration that increases the cytotoxicity” value was 5 µM, the “Increased cytotoxicity … (yes/no)” value is “yes” and the “% living HepG2 cells expressing CYP2C9” value is on record as 30%. The “Inhibition effect on CYP2C9 (in words)” value in data set [2] (CYP2C9 supersomes) was “no direct inhibition; also recorded: No any inhibition effect”. The negative logarithm of the IC50 (pIC50) in data set [2] was below 4.00. In addition, in data set [3], the “Inhibition … in HepG2 cells (yes/no)” value is “no” and the “Dose-dependent inhibition (yes/no)” value is reported as “no”. Also, the “Metabolism by CYP2C9 (in words)” value in data set [4] is recorded as “metabolized by CYP2C9”.
On to `C[C@H](Nc1ncnc2[nH]cnc12)c1cc2cccc(Cl)c2c(=O)n1-c1ccccc1` [Duvelisib], for which the “Increased cytotoxicity … (yes/no)” value in data set [1] is “no”. For the same molecule, the pIC50 in data set [2] is 4.28. For the same molecule, in data set [3], the “Inhibition … in HepG2 cells (yes/no)” value is “yes” and the “Dose-dependent inhibition (yes/no)” value is reported as “yes”.
As for `CC(C)Oc1ccc(S(=O)(=O)N2CCN(c3ccc(-c4ncco4)c(OCC(=O)O)c3)CC2)cc1` [Asapiprant], the “Increased cytotoxicity … (yes/no)” value in data set [1] is given as “no”. In addition, the negative logarithm of the IC50 (pIC50) in data set [2] was 4.34. In addition, in data set [3], the “Inhibition … in HepG2 cells (yes/no)” value is recorded as “yes” and the “Dose-dependent inhibition (yes/no)” value is on record as “yes”.
As for `CC(=O)N1CCN(CCOc2ccc(C3CCN(C4=Nn5c(nnc5C(F)(F)F)CC4)CC3)cc2)CC1` [Azd3514], in data set [1], the “min [c]: minimal concentration that increases the cytotoxicity” value was found to be 20 µM, the “Increased cytotoxicity … (yes/no)” value is listed as “yes” and the “% living HepG2 cells expressing CYP2C9” value was 60%. In data set [3], the “Inhibition … in HepG2 cells (yes/no)” value is reported as “no” and the “Dose-dependent inhibition (yes/no)” value is “no”.
Take `COc1ccc(OC(=O)N(CC(=O)O)Cc2ccc(OCCc3nc(-c4ccccc4)oc3C)cc2)cc1` [Muraglitazar]: in data set [1], the “Increased cytotoxicity … (yes/no)” value is on record as “no”. Further, in data set [3], the “Inhibition … in HepG2 cells (yes/no)” value was “no”, the “Dose-dependent inhibition (yes/no)” value was “no” and the “Any effect (inhibition of CYP2C9 activity and/or cytotoxicity on HepG2 cells expressing CYP2C9)” value was “did not show any effect”.
As to `CC(C)(C)C(=O)Oc1ccc(S(=O)(=O)Nc2ccccc2C(=O)NCC(=O)O)cc1` [Sivelestat], the “Increased cytotoxicity … (yes/no)” value in data set [1] is reported as “no”. In addition, in data set [3], the “Inhibition … in HepG2 cells (yes/no)” value is recorded as “no”, the “Dose-dependent inhibition (yes/no)” value is on record as “no” and the “Any effect (inhibition of CYP2C9 activity and/or cytotoxicity on HepG2 cells expressing CYP2C9)” value is on record as “did not show any effect”.
With `CN(c1ncccc1CNc1nc(Nc2ccc3c(c2)CC(=O)N3)ncc1C(F)(F)F)S(C)(=O)=O` [Pf-562271], in data set [1], the “min [c]: minimal concentration that increases the cytotoxicity” value stood at 10 µM, the “Increased cytotoxicity … (yes/no)” value is recorded as “yes” and the “% living HepG2 cells expressing CYP2C9” value was determined as 65%. In data set [3], the “Inhibition … in HepG2 cells (yes/no)” value is reported as “yes” and the “Dose-dependent inhibition (yes/no)” value was “no”.
As to `O=C(O[C@H]1CN2CCC1CC2)N(Cc1cc(F)c(F)c(F)c1)c1cccc(F)c1` [Tarafenacin], in data set [6], the “Dose-dependent inhibition (yes/no)” value is “no” and the “Inhibition … in HepG2 cells (yes/no)” value is recorded as “yes”. Besides, in data set [7], the “% living HepG2 cells expressing CYP2C9” value came out at 0% and the “min [c]: minimal concentration that increases the cytotoxicity” value stood at 50 µM. Further, in data set [2], the pIC50 is below 4.00. Moreover, the “Inhibition effect on CYP2C9 (in words)” value in data set [2] (recombinant enzyme) is listed as “weak inhibition effect”.

As usually defined, the pIC50 is the negative decadic logarithm of the IC50, by convention in mol/L. A word on the IC50: it is the point on the concentration scale where inhibition reaches its midpoint.

These data come from article PMC8820617, “Machine learning-driven identification of drugs inhibiting cytochrome P450 2C9” (PLoS Computational Biology, 2022).
